This passage reports IC50 results from patent publication US10766893B2 (priority 2017, dated 2020).

Assay in all cases: biochemical
What all share (type): biochemical
What all share (conditions): 15 nM tritium labelled cAMP, 1 hr at room temperature

For assay [1], the target named is PDE1B (Homo sapiens (Human), UniProt Q01064). An excerpt:
(§1) Table 1 lists the IC50 value for inhibition of PDE1 by the compounds of the invention. […] PDE1 assays are described in the Experimental Section.

For assay [2], the target named is PDE1C (Homo sapiens (Human), UniProt Q14123).
Chain of PDE1C (Q14123 whole entry): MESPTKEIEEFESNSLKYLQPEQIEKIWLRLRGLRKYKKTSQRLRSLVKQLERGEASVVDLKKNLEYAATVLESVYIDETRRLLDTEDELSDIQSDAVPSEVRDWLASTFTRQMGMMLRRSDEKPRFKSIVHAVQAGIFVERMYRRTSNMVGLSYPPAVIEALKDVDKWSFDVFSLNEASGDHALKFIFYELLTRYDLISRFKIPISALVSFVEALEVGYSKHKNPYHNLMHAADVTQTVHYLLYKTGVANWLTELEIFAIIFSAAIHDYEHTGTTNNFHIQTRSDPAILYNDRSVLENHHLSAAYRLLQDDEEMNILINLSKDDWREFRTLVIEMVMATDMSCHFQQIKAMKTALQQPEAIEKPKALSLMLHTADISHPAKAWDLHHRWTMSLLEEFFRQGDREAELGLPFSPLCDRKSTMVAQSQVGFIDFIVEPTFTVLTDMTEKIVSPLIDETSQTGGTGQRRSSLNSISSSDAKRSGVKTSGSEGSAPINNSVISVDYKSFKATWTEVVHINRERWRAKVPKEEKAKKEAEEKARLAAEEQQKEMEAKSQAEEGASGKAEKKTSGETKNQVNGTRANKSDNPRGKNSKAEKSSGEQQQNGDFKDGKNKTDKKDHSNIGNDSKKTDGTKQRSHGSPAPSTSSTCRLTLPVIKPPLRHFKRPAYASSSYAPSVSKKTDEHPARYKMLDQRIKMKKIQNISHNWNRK
Description: as §1

The target of assay [3] is PDE1A (Homo sapiens (Human), UniProt P54750).
Chain of PDE1A (P54750 whole entry): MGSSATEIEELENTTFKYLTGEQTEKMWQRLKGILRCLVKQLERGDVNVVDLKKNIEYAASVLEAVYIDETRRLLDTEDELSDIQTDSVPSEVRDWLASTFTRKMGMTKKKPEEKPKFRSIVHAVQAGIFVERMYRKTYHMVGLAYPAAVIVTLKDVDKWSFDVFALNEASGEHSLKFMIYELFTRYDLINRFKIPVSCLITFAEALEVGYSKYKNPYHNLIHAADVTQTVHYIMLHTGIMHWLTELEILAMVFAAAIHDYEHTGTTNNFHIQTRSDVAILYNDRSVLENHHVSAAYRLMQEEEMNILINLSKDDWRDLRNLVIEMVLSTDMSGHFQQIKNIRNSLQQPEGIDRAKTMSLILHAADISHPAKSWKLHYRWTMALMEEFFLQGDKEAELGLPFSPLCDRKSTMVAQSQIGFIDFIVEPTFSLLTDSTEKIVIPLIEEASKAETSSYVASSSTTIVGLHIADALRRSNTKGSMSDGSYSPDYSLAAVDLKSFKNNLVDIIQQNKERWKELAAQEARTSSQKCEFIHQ
Description: as §1

Structures are written as SMILES.

The IC50 is the point on the concentration scale where inhibition reaches its midpoint.

Chain of PDE1B (Q01064 whole entry): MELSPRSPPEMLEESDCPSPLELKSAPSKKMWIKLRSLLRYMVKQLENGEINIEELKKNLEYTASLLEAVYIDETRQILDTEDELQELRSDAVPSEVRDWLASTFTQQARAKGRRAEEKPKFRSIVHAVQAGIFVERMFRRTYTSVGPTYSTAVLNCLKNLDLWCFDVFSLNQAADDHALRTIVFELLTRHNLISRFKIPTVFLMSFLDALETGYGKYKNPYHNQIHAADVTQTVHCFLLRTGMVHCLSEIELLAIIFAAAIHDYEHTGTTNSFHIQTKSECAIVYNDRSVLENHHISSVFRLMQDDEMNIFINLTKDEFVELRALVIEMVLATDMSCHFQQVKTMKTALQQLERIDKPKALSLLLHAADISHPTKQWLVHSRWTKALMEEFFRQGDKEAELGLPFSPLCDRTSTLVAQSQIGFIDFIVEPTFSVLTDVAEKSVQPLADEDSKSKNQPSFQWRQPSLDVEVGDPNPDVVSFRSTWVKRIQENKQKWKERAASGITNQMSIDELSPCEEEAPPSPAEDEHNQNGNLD

On to `CCOc1ncccc1-c1cc(NCc2cccc3oc(C)nc23)c2c(n1)c(C)nn2C(C)C` [Example 11a, 5-(2-ethoxy-3-pyridyl)-1-isopropyl-3-methyl-N-[(2-methyl-1,3-benzoxazol-4-yl)methyl]pyrazolo[4,3-b]pyridin-7-amine], for which the results for the IC50 in assay [1], in assay [2] and in assay [3] were 4 nM, 26 nM and 18 nM, respectively.

As to `CCOc1cnccc1-c1cc(NCc2ccn(C)n2)c2c(n1)c(C)nn2C(C)C` [Example 27b, 5-(3-ethoxy-4-pyridyl)-1-isopropyl-3-methyl-N-[(1-methylpyrazol-3-yl)methyl]pyrazolo[4,3-b]pyridin-7-amine], the IC50 in assay [1] was 1.6 nM; in assay [2] it was 42 nM; in assay [3], 17 nM.

In the case of `COc1cnccc1-c1cc(NCc2cnn(C)c2)c2c(n1)c(C)nn2C(C)C` [Example 29b, 1-isopropyl-5-(3-methoxy-4-pyridyl)-3-methyl-N-[(1-methylpyrazol-4-yl)methyl]pyrazolo[4,3-b]pyridin-7-amine], the concentration for half-maximal inhibition (IC50) in assay [1] came out at 4.9 nM; in assay [2] it was 44 nM; in assay [3] it was 32 nM.

For `Cc1nn(C(C)C)c2c(NCc3cnn(C)c3)cc(-c3cccc4cn[nH]c34)nc12` [Example 39b, 5-(1H-indazol-7-yl)-1-isopropyl-3-methyl-N-[(1-methylpyrazol-4-yl)methyl]pyrazolo[4,3-b]pyridin-7-amine], the values for the IC50 in assay [1], in assay [2] and in assay [3] were 24 nM, 300 nM and 140 nM, respectively.

Turning to `CCOc1ncccc1-c1cc(NCc2nccc3nccn23)c2c(n1)c(C)nn2C(C)C` [Example 16a, 5-(2-ethoxypyridin-3-yl)-N-(imidazo[1,2-c]pyrimidin-5-ylmethyl)-1-isopropyl-3-methyl-1H-pyrazolo[4,3-b]pyridin-7-amine], the IC50 in assay [1] is 4 nM; in assay [2], 44 nM; in assay [3] it was 35 nM.

Consider `Cc1nn(C(C)C)c2c(NCc3cnn(C)c3)cc(-c3cccc4ncoc34)nc12` [Example 37b, 5-(1,3-benzoxazol-7-yl)-1-isopropyl-3-methyl-N-[(1-methylpyrazol-4-yl)methyl]pyrazolo[4,3-b]pyridin-7-amine], for which the IC50 in assay [1] is 2.4 nM; in assay [2], 14 nM; in assay [3], 16 nM.

Consider `CCOc1cnccc1-c1cc(NCc2ncn(C)n2)c2c(n1)c(C)nn2C(C)C` [Example 19b, 5-(3-ethoxy-4-pyridyl)-1-isopropyl-3-methyl-N-[(1-methyl-1,2,4-triazol-3-yl)methyl]pyrazolo[4,3-b]pyridin-7-amine], for which the values for the IC50 in assay [1], in assay [2] and in assay [3] were 0.91 nM, 22 nM and 11 nM, respectively.

With `CCOc1ncccc1-c1cc(NCc2cccc3ncnn23)c2c(n1)c(C)nn2C(C)C` [Example 6a, 5-(2-ethoxy-3-pyridyl)-1-isopropyl-3-methyl-N-([1,2,4]triazolo[1,5-a]pyridin-5-ylmethyl)pyrazolo[4,3-b]pyridin-7-amine], the figures for the IC50 in assay [1], in assay [2] and in assay [3] were 1.4 nM, 64 nM and 18 nM, respectively.

Turning to `CCOc1nnccc1-c1cc(NCc2cccc3ocnc23)c2c(n1)c(C)nn2C(C)C` [Example 13a, N-(1,3-benzoxazol-4-ylmethyl)-5-(3-ethoxypyridazin-4-yl)-1-isopropyl-3-methyl-pyrazolo[4,3-b]pyridin-7-amine], the results for the IC50 in assay [1], in assay [2] and in assay [3] were 1.7 nM, 93 nM and 39 nM, respectively.

With `CCOc1cnccc1-c1cc(NCc2cccc(OC)n2)c2c(n1)c(C)nn2C(C)C` [Example 25b, 5-(3-ethoxy-4-pyridyl)-1-isopropyl-N-[(6-methoxy-2-pyridyl)methyl]-3-methyl-pyrazolo[4,3-b]pyridin-7-amine], the IC50 in assay [1] was determined as 1.6 nM; in assay [2], 53 nM; in assay [3], 17 nM.

Regarding `CCOc1nnccc1-c1cc(NCc2ncc(F)cn2)c2c(n1)c(C)nn2C(C)C` [Example 10b, 5-(3-ethoxypyridazin-4-yl)-N-[(5-fluoropyrimidin-2-yl)methyl]-1-isopropyl-3-methyl-pyrazolo[4,3-b]pyridin-7-amine], the values for the IC50 in assay [1], in assay [2] and in assay [3] were 2.4 nM, 67 nM and 21 nM, respectively.

`CCOc1cnccc1-c1cc(NCc2cc(C)[nH]n2)c2c(n1)c(C)nn2C(C)C` [Example 23b, 5-(3-ethoxy-4-pyridyl)-1-isopropyl-3-methyl-N-[(5-methyl-1H-pyrazol-3-yl)methyl]pyrazolo[4,3-b]pyridin-7-amine]: the IC50 in assay [1] amounted to 0.55 nM; in assay [2], 12 nM; in assay [3], 5.5 nM.

`CCOc1ncccc1-c1cc(NCc2nccc3nncn23)c2c(n1)c(C)nn2C(C)C` [Example 15a, N-([1,2,4]triazolo[4,3-c]pyrimidin-5-ylmethyl)-5-(2-ethoxypyridin-3-yl)-1-isopropyl-3-methyl-1H-pyrazolo[4,3-b]pyridin-7-amine]: the IC50 in assay [1] came out at 4.8 nM; in assay [2], 43 nM; in assay [3] it was 30 nM.

For `CCOc1nnccc1-c1cc(NCc2cnn(C)c2)c2c(n1)c(C)nn2C(C)C` [Example 3b, 5-(3-ethoxypyridazin-4-yl)-1-isopropyl-3-methyl-N-[(1-methylpyrazol-4-yl)methyl]pyrazolo[4,3-b]pyridin-7-amine], the IC50 is 1.1 nM in assay [1], 27 nM in assay [2] and 6.1 nM in assay [3].

Turning to `CCOc1cnccc1-c1cc(NCc2nnc(C)o2)c2c(n1)c(C)nn2C(C)C` [Example 34b, 5-(3-ethoxy-4-pyridyl)-1-isopropyl-3-methyl-N-[(5-methyl-1,3,4-oxadiazol-2-yl)methyl]pyrazolo[4,3-b]pyridin-7-amine], the IC50 in assay [1] amounted to 7 nM; in assay [2], 130 nM; in assay [3], 49 nM.
